The source made the active and inactive calls. The rule behind the calls is not given here.
How the values were obtained:
HCT-116 [1] = test: Antiproliferative activity against human HCT-116 cells assessed as inhibition of cell growth upto 15 uM incubated for 7 days by CCK8 assay relative to control; assay type: functional; conditions: time 7 day, up to 15 µM
NCI-H1299 [2] = test: Effect on DNMT1 mRNA level in human NCI-H1299 cells at 500 nM incubated for 24 hrs by RT-qPCR analysis; assay type: functional, cell-based
[3] = molecular target: Histone-lysine N-methyltransferase EZH2 (Homo sapiens) (UniProt Q15910); test: Inhibition of human EZH2 using core histone and SAM as substrate at 1 uM by radioisotope-based MT HotSpot assay relative to control
Histone-lysine N-methyltransferase EZH2 (Homo sapiens), sequence (Q15910 whole entry, looked up): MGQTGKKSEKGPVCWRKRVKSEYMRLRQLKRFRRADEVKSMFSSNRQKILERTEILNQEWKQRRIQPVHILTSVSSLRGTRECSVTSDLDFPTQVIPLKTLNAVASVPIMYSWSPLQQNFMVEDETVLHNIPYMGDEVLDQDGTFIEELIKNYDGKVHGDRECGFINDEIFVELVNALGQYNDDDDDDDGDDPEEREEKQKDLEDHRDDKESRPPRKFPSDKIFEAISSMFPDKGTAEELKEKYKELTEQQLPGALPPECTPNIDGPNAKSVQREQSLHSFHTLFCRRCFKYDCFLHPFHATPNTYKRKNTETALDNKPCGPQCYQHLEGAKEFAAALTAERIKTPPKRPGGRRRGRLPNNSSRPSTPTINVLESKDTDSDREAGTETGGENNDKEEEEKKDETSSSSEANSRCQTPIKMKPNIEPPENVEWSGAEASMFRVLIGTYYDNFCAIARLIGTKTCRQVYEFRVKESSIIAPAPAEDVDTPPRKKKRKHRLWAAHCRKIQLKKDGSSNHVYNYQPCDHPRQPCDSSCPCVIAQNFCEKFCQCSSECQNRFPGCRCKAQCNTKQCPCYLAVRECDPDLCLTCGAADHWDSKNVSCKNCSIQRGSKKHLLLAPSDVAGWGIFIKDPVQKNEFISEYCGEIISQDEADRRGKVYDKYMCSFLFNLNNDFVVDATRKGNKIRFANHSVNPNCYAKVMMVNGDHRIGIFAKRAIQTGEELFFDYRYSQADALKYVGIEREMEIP

[4] = molecular target: T1, Histone-lysine N-methyltransferase NSD2 (Homo sapiens) (UniProt O96028); test: Inhibition of human NSD2 using nucleosomes and SAM as substrate at 1 uM by radioisotope-based MT HotSpot assay relative to control
T1 sequence (whole entry): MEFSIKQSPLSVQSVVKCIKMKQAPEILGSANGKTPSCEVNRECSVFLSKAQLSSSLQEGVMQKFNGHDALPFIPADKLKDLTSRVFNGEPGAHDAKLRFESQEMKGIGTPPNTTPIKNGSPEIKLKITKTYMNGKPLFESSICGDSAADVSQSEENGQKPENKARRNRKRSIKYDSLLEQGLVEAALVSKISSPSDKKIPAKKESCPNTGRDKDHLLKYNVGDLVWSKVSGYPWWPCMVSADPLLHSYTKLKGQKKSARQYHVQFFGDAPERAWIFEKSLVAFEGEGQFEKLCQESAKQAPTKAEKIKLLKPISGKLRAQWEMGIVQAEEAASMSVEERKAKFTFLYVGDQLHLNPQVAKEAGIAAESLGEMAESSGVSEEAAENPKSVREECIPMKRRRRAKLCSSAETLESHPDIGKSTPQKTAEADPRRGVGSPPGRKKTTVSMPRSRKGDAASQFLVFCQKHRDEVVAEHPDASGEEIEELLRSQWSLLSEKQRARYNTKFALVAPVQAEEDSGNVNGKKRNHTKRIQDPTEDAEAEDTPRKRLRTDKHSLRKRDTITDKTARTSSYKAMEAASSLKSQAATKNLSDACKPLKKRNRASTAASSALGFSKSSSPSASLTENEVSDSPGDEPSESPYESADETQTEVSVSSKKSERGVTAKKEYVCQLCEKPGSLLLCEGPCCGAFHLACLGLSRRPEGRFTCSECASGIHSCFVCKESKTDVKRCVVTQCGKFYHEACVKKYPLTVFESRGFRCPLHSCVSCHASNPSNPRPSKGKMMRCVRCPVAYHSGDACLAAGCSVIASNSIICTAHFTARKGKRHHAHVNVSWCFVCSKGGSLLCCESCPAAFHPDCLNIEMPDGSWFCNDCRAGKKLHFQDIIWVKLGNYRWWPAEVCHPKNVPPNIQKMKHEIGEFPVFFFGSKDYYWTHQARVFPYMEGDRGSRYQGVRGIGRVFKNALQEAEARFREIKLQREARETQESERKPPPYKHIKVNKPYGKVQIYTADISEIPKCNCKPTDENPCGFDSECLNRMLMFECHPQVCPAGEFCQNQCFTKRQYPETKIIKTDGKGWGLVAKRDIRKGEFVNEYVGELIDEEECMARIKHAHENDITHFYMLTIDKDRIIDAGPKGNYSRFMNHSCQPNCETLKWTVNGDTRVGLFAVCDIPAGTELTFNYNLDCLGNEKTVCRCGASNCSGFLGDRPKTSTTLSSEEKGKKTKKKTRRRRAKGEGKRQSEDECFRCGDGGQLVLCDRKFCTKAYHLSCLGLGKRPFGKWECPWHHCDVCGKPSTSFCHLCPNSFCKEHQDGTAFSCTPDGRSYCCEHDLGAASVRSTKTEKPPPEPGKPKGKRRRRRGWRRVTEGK

HCT-116 [5] = test: Induction of molecular glue effect mediated DNMT3A degradation in human HCT-116 cells assessed as reduction in DNMT3A protein level at 500 nM incubated for 24 hrs by Western blot analysis; assay type: cell-based
HCT-116 [6] = test: Induction of molecular glue effect mediated DNMT1 degradation in human HCT-116 cells assessed as reduction in DNMT1 protein level at 100 nM preincubated with lysosome inhibitor CQ for 2 hrs followed by compound addition and measured after 24 hrs by Western blot analysis; assay type: cell-based
NCI-H1299 [7] = test: Induction of molecular glue effect mediated DNMT1 degradation in human NCI-H1299 cells assessed as reduction in DNMT1 protein level at 100 nM preincubated with MG132 for 2 hrs followed by compound addition and measured after 24 hrs by Western blot analysis; assay type: cell-based
HCT-116 [8] = test: Induction of molecular glue effect mediated DNMT1 degradation in human HCT-116 cells transfected with Smurf2 siRNA assessed as reduction in DNMT1 protein level at 100 nM measured after 24 hrs by Western blot analysis; assay type: cell-based
HCT-116 [9] = test: Induction of molecular glue effect mediated DNMT1 degradation in human HCT-116 cells transfected with NEDD4 siRNA assessed as reduction in DNMT1 protein level at 100 nM measured after 24 hrs by Western blot analysis; assay type: cell-based

inhibition [3]: < 20% | inhibition [4]: < 20%
SMILES: CCc1c(C#N)c(SC(C(N)=O)c2ccccc2)nc(N(C)CC(=O)NC)c1C#N (centres undefined)
inhibition (INH) (HCT-116 [1]): <50% | Activity (NCI-H1299 [2]): inactive | Activity (HCT-116 [5]): inactive | Activity (HCT-116 [6]): Active | Activity (NCI-H1299 [7]): inactive | Activity (HCT-116 [8]): Active | Activity (HCT-116 [9]): Active
